Source: ChEMBL document CHEMBL4602617, “Discovery and optimization of heteroaryl piperazines as potent and selective PI3Kδ inhibitors” (Bioorg Med Chem Lett, 2020)

Experiments:
[1] = target: Mitogen-activated protein kinase 14 (Homo sapiens, UniProt Q16539); experiment: Inhibition of recombinant full length GST-tagged human MAPK14 expressed in Escherichia coli using Ser/Thr 04 as substrate after 1 hr in presence of ATP by Z'LYTE assay
[2] = target: Dual specificity tyrosine-phosphorylation-regulated kinase 3 (Homo sapiens, UniProt O43781); experiment: Inhibition of recombinant full length human GST-tagged DYRK3 expressed in baculovirus expression system using serine/threonine-9 peptide as substrate incubated for 60 mins in presence of ATP by Z'-LYTE assay
[3] = target: Cyclin-dependent kinase 5/CDK5 activator 1 (Homo sapiens, UniProt Q00535); experiment: Inhibition of recombinant full length human GST/His-tagged CDK5/p25 expressed in baculovirus expression system using serine/threonine-12 peptide as substrate incubated for 60 mins in presence of ATP by Z'-LYTE assay
[4] = target: Mitogen-activated protein kinase 3 (Homo sapiens, UniProt P27361); experiment: Inhibition of recombinant full-length human ERK1 expressed in Escherichia coli at 10 uM using MBP as substrate after 30 mins by radiometric scintillation analysis relative to control
[5] = target: Tyrosine-protein kinase ABL1 (Homo sapiens, UniProt P00519, T315I); experiment: Inhibition of recombinant full length human His-tagged ABL1 T315I mutant cytoplasmic domain expressed in baculovirus expression system using tyrosine-2 peptide as substrate incubated for 60 mins in presence of ATP by Z'-LYTE assay
[6] = target: Tyrosine-protein kinase JAK2 (Homo sapiens, UniProt O60674); experiment: Inhibition of recombinant GST-tagged human JAK2-JH1/JH2 domain (574 to 1154 residues) expressed in baculovirus expression system using Tyr 06 as substrate after 1 hr in presence of ATP by Z'LYTE assay
[7] = target: Beta-3 adrenergic receptor (Homo sapiens) (UniProt P13945); experiment: Displacement of [125I]cyanopindolol from full-length recombinant human beta3 adrenergic receptor expressed in HEK293 cell membranes at 10 uM measured after 90 mins by scintillation counting method relative to control
Sequence of Beta-3 adrenergic receptor (Homo sapiens) (P13945 whole entry, looked up): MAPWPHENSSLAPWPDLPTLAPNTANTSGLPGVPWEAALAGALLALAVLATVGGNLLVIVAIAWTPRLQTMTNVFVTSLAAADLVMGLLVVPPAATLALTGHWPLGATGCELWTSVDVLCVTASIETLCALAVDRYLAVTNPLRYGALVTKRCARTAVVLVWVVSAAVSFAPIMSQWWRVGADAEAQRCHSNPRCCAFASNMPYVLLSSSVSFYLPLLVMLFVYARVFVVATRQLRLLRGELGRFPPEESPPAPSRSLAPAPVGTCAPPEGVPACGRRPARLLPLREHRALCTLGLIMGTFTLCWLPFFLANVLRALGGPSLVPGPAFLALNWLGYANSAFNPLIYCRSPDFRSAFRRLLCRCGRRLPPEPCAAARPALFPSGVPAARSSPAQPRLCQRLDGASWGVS

Sequence of Dual specificity tyrosine-phosphorylation-regulated kinase 3 (O43781 whole entry): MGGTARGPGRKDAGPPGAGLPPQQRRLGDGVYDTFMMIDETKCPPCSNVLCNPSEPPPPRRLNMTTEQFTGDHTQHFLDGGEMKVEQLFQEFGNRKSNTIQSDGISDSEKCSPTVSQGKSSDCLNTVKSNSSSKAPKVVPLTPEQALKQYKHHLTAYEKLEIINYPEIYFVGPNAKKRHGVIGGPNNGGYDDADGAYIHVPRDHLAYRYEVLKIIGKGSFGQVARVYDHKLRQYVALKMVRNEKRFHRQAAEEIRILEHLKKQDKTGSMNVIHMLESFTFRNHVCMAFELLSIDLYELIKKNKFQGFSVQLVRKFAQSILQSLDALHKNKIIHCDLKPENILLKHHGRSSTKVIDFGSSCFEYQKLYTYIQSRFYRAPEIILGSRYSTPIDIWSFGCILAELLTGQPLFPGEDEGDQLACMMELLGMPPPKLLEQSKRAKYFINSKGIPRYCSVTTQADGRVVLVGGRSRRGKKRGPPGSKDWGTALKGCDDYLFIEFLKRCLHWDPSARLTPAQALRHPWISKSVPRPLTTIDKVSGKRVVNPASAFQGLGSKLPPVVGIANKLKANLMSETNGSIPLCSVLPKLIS
Sequence of Mitogen-activated protein kinase 3 (P27361 whole entry, the tested form may be a part): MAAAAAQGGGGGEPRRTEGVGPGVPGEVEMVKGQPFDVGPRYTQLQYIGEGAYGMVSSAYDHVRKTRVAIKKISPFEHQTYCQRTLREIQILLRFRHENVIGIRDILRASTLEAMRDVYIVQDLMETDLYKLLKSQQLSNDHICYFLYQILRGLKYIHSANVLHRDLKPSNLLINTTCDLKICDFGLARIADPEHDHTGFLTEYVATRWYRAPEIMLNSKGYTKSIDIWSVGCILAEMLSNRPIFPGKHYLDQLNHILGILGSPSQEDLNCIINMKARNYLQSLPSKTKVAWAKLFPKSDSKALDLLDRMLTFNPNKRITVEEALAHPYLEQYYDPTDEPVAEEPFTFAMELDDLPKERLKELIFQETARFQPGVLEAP
Sequence of Tyrosine-protein kinase JAK2 (O60674 whole entry, the tested form may be a part): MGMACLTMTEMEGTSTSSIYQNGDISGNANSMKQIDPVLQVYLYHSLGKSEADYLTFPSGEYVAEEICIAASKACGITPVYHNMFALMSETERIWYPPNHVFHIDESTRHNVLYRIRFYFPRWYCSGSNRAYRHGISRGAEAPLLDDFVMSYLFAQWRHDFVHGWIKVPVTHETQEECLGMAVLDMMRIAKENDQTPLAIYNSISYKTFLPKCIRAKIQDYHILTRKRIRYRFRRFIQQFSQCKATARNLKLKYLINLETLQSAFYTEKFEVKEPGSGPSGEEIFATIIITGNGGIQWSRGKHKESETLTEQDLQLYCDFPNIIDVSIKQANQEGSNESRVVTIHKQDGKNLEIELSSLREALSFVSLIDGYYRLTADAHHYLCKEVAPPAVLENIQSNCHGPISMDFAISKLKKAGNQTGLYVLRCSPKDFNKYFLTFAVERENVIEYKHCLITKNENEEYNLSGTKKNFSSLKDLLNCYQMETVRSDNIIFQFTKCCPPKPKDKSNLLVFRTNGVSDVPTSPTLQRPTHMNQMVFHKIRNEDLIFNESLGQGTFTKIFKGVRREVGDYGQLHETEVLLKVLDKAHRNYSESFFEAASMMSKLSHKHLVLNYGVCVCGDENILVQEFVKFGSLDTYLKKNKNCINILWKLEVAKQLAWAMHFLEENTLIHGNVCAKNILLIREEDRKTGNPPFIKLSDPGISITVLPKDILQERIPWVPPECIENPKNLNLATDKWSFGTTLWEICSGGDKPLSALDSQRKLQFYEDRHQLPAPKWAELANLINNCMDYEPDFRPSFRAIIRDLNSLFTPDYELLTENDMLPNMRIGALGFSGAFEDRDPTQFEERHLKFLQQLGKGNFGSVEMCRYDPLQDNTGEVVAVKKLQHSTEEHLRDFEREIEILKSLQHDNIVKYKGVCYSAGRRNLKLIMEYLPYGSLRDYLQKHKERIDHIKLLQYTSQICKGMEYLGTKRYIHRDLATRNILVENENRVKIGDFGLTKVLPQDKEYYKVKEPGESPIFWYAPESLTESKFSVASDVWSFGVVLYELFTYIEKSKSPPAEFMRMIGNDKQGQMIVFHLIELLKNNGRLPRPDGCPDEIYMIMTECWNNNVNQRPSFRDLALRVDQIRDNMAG
Sequence of Cyclin-dependent kinase 5/CDK5 activator 1 (Q00535 whole entry): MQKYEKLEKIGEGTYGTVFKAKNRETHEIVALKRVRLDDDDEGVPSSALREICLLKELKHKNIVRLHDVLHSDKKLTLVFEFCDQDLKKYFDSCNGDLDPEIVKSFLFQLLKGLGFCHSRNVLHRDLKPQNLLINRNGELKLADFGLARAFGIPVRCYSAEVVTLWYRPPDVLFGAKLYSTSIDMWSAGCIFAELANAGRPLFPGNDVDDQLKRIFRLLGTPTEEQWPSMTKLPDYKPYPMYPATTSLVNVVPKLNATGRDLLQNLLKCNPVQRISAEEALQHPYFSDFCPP
Sequence of Cyclin-dependent kinase 5/CDK5 activator 1 (Q15078 whole entry, further chain): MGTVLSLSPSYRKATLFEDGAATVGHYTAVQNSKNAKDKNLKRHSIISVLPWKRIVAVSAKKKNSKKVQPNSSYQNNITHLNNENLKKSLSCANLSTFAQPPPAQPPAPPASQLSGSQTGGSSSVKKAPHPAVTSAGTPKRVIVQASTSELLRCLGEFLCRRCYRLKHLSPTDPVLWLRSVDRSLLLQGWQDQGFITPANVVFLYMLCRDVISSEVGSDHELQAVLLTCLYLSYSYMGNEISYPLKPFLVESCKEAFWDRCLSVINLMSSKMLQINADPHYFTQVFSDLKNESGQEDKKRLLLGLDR
Sequence of Mitogen-activated protein kinase 14 (Q16539 whole entry): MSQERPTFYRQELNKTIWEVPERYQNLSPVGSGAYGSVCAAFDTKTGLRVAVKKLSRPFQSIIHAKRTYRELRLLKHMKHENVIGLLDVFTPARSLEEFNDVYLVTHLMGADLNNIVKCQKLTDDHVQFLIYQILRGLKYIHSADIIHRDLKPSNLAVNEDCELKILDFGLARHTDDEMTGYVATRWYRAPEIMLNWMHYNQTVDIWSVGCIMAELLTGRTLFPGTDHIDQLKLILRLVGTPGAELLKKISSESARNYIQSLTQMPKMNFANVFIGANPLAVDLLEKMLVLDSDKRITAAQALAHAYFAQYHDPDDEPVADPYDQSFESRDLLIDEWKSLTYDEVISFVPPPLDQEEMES

In the case of `C[C@@H]1C[C@H]1C(=O)N1CCN(c2cnc(C#N)c(-c3cnn(C)c3)n2)C[C@H]1C`, the IC50 [1] is reported as > 100 µM, the IC50 [2] is reported as > 100 µM and the IC50 [3] is reported as > 100 µM. For the same molecule, the inhibition [4] was 18%, the IC50 [5] was > 100 µM and the IC50 [6] was > 100 µM. The inhibition [7] was -1%.
